# Reference: BindingDB's records for doi:10.1016/j.bmcl.2018.06.004 (Peking University, 2018)
# Columns and labels:
# [1] = Inhibition of trypsin-like activity of 20S proteasome in human K562 cells using Z-LRRaminoluciferin as substrate after 2 hrs by luminescence assay
# [2] = Inhibition of PGPH activity of 20S proteasome in human K562 cells using Z-nLPnLDaminoluciferin as substrate after 2 hrs by luminescence assay
compound,measurement,setting,value
CC(C)C[C@H](NC(=O)[C@H](Cc1ccccc1)NC(=O)N1C/C(=C\c2ccc(F)cc2)C(=O)/C(=C/c2ccc(F)cc2)C1)B(O)O,IC50,[1],> 100 µM
same,IC50,[2],> 100 µM
